Reference: patent publication US6440432B1, “Skin cosmetic compositions containing dextran or maltodextrin and a weak carboxylic acid” (Unilever Home & Personal Care USA, a division of Conopco, …, priority 1999, dated 2002)
“Also recorded” adds a separate entry of the source.

Key:
[1] = system: contralateral nasolabial folds of subjects sensitive to glycolic acid; assay: in-vivo sting test (sting/burn propensity and forced choice); details: for Effect on stinging/burning propensity of Base Formula A containing 8% glycolic acid (in words): substance added to the formulation, pH 3.8; for Effect on sting/irritation caused by weak carboxylic acids (in words, summary): summary of Examples 1-6
Source text: (§1) Procedure for in-vivo sting test: This was a randomized, double blind study where each subject evaluated one test formulation and a control formulation or two test formulations on contralateral nasolabial folds. […] A maximum of 20 qualified subjects (minimum of 15) were utilized in each subsequent test. One paired comparison was made on each testing day, with a minimum of 3 days between sting testing throughout the study. Subjects underwent a 15 second Ivory soap wash regime immediately prior to product testing for enhancing sting response. […] Study personnel then applied one test formulation and one control or test formulation simultaneously to the appropriate left/right test site, and gently but thoroughly rubbed in. Subjects compared the stinging potential of the two formulations, over a 7.5 minute period using a self-assessment questionnaire.
(§2) Sting/Burn Propensity: The degree of stinging/burning felt on the left and right inner cheek and crease of the nose was evaluated using the following scale at the times indicated in Tables below:
(§3) 0-no stinging/burning; 1-very slight stinging/burning; 2-slight stinging/burning; 3-moderate stinging/burning; 4-moderately high stinging/burning; 5-high stinging/burning; 6-extreme stinging/burning.
(§4) Determination of Statistical Significance: At each evaluation time point after baseline, the parametric paired t-test (two-tailed) was performed, to compare the extent of attribute change from baseline between each treatment comprising a paired comparison test, with subject acting as a block in these analyses. […] The test can be implemented using the SAS software procedure MEANS with the T and PRT options specified.
(§5) Statistical significance was determined at p≦0.1.

[2] = system: procollagen I in neonatal human dermal fibroblasts; assay: procollagen I production by fibroblasts (slot blot); type: cell-based; details: combination with glycolic acid
Source text: Collagen is a predominant skin protein. It is synthesized by fibroblasts in the dermis. The synthesis of collagen decreases with aging or photodamage. Collagen l is first made as a precursor molecule called Pro-collagen l. Increased production of procollagen 1 is a marker of an increased collagen level in response to a test compound application.
Method: Neonatal human dermal fibroblasts were purchased from Clonetics Corp., San Diego, Calif. All materials for cell culture were purchased from Life Technologies, NY. Cells (between passages 5-10) were seeded at a density of approximately 10,000/well in the inner 48 wells of a 96-well plate in DMEM (Dulbecco's Modified Eagle's Medium), high-glucose, supplemented with 2 mM L-glutamine, 10% fetal bovine serum, and antibiotic and antimycotic solutions. Cells were then grown to confluence for 2 days. At confluence, the medium was removed and cells were washed with serum-free DMEM, and each well dosed with 200 μl of a solution of a test compound in serum-free DMEM. Each dosing was replicated in the total of six wells. […]
For the analysis of procollagen I in the solutions, they were diluted in DMEM (approximately 20 μl sample in 200 μl DMEM). […] Percent increase was calculated as a ratio of optical density of cells treated with a test compound over control ×100.

[3] = system: transglutaminase-K (Tgase K) in Normal Human keratinocytes; assay: keratinocyte differentiation (transglutaminase absorbance / µg DNA); type: cell-based; details: combination with lactic acid
Source text: Keratinocytes, the major cell type in the epidermis, undergo a program of differentiation leading to formation of corneocytes which form the stratum corneum and provide a protective barrier against water loss and entry of harmful substances and pathogens. A prominent feature of keratinocyte differentiation is the formation of a highly insoluble, cross-linked envelope (CE) immediately beneath the keratinocyte plasma membrane. The production of keratinocyte CE is catalyzed by the enzyme transglutaminase-K (Tgase K) which cross-links certain precursor proteins in the cell. […] Therefore, agents that increase Tgase-K activity have the potential of providing benefits to the skin.
Method: Normal Human keratinocytes were seeded in 96-well plates at 4000 cells/well and grown in Keratinocyte Growth Medium (KGM) obtained from Clonetics Corp. Cells were treated with test compounds at various concentrations for 48 hours with an intermittent change of medium after 24 hrs. 6 replicate wells were used for each test. At the end of the incubation period, two parameters were measured on the cells—I. DNA and II. […]
I. DNA was measured using a method described by Rago et al Anal. Biochem 191:31-34,1990. […] Readings were then taken on Millipore Fluorescence Miicroplate Reader (ex/em 360/450 nm). Amount of DNA per well (α) was calculated using standards.
II. […] Absorbance was measured at 490nm (b). […]

skin = details: LAREX publication Mar. 23, 1998; cited from earlier work
[4] = system: contralateral nasolabial folds of subjects sensitive to glycolic acid; details: in vivo, pH 3.8
Source text: as §1, §2, §3, §4, §5

[5] = system: photodamaged skin on both forearms; assay: 12-week bilateral comparison use test, clinical assessment of photodamaged skin; type: in vivo, human; details: summary statement
Experimental: Procedure: The study was a 12-week bilateral comparison use test of two formulations. […] At Baseline (week 0), week 4, 8 and 12, visual evaluation was conducted. Product assignment was randomized and balanced for left/right usage across the subject pool. Subjects were instructed to use the appropriate product to the left/right arms at home and applied approximately 1 gram twice daily for 12 weeks. A minimum of 15 qualified subjects per paired comparison completed the study. […] 0=none […] 4-6=moderate 7-9=severe The following paired comparisons were made: […] The Wilcoxon signed rank test, Pratt-Lehmann version, was used to statistically assess the magnitude of average change from baseline attributable to treatment with subject acting as a block in this analysis. In addition, to compare the extent of change from baseline between the two treatments within a cell, the nonparametric Wilcoxon signed-rank test, Pratt-Lehmann version, was also used.

[6] = cited from earlier work

Molecule	Effect on stinging/burning propensity of Base Formula A containing 8% glycolic acid (in words) [1]	Effect on sting/irritation caused by weak carboxylic acids (in words, summary) [1]	Effect on procollagen I levels (in words) [2]	other results
Arabinogalactan	neither hydrocortisone nor arabinogalactan reduced the sting; also recorded: slightly enhanced the sting	does not have this effect; also recorded: did not reduce the sting caused by weak carboxylic acids	did not	Effect on keratinocyte differentiation (in words) [3]: did not; Increase of exfoliation performance of a skin care lotion containing alpha hydroxy acid (skin): 80%; Irritation of the skin care lotion containing alpha hydroxy acid (in words) (skin): without increased irritation
Dextran		decrease irritation; also recorded: reduced the sting caused by weak acids	significant increase in procollagen l levels	Effect on stinging/burning propensity of Base Formula B containing 8% glycolic acid (in words) [4]: reduced the stinging/burning propensity; Effect on anti-aging efficacy of hydroxy acids (in words) [5]: enhances the anti-aging efficacy of hydroxy acids
C[C@]12CCC(=O)C=C1CC[C@@H]1[C@@H]2[C@@H](O)C[C@@]2(C)[C@H]1CC[C@]2(O)C(=O)CO [hydrocortisone, Hydrocortisone]	neither hydrocortisone nor arabinogalactan reduced the sting	did not reduce the sting caused by weak carboxylic acids		
CC(O)CC(=O)O (stereo not drawn) [beta-hydroxybutyric]				pKa [6]: 4.7
Maltodextrin		decrease irritation		
